Target: T1, BlsA (dBlsA, His-BlsA) (Acinetobacter baumannii, UniProt V5VB82)
T1 construct: gene ycgF; short BLUF protein, recombinant His-tag fusion, purified as in Abatedaga et al. 2017; approximately 20 kDa; residues named Tyr7, Gln51, Trp78, Trp92
Assay: cofactor fluorescence emission and anisotropy (steady-state and time-resolved), UV-vis photocycle
Assay type: binding
Conditions: dark-adapted state; cofactor bound on purification; temperature series, compared with free FAD

T1 sequence (V5VB82 entry or part of it): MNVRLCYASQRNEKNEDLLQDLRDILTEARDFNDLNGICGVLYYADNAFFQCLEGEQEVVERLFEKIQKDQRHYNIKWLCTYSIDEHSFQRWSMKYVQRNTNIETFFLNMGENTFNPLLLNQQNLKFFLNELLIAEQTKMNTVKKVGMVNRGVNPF

`Cc1cc2nc3c(=O)[nH]c(=O)nc-3n(C[C@H](O)[C@H](O)[C@H](O)COP(=O)(O)OP(=O)(O)OC[C@H]3O[C@@H](n4cnc5c(N)ncnc54)[C@H](O)[C@@H]3O)c2cc1C` [FAD] was tested, and the “cofactor fluorescence emission and anisotropy (steady-state and time-resolved),” value was “the steady-state anisotropy of the cofactor in dBlsA solutions is strongly decreased”.

— publication PMC6712483, “BlsA Is a Low to Moderate Temperature Blue Light Photoreceptor in the Human Pathogen Acinetobacter baumannii” (Frontiers in Microbiology, 2019)
